In PMC12711630 (Cell Reports. Physical Science, 2025):
Several values for one entry are separate records, joined by “and”; a condition that tells them apart may be missing. Equal values may be shown once. Read-outs that look alike come from different tables or passages of the source. Marks after values point to notes of the source that are not given here.

How the values were obtained:
[1] = Spectrophotometric titration pKa determination; conditions: for protonated fraction of ammonium center: at pH 7.5
[2] = biological target: T1, 5-HT3A receptor (Homo sapiens, UniProt P46098); test: Inhibition of [3H]GR65630 binding, transfected HEK293 cell membranes; conditions: for IC50: n=3
T1 sequence (P46098 24-478): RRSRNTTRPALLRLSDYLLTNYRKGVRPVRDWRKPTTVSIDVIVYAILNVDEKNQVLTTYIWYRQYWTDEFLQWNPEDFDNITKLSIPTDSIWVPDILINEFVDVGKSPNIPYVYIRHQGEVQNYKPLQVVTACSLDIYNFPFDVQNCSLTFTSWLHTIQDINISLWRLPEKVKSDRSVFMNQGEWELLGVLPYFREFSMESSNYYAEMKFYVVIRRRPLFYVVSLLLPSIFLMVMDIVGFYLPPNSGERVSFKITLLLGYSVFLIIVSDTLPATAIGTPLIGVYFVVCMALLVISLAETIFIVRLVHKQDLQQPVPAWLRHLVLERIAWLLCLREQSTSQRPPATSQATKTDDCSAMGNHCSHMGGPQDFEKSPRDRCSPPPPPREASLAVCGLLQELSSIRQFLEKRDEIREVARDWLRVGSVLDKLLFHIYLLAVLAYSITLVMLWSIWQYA

[3] = biological target: T2, human α7 nAChR (Homo sapiens, UniProt P36544); test: [125I]α-Bgtx radioligand binding (saturation and competition), membranes of transfected SH-SY5Y cells; conditions: competition with [125I]α-Bgtx 2-3 nM, Cheng-Prusoff
T2 construct: expressed in transfected cells; host or cells: SH-SY5Y cells, transient transfection with JetPEI, membranes

[4] = biological target: T3, (α4)2(β2)3 (HS isoform) α4β2 nAChR (Homo sapiens, UniProt P17787+P43681); test: Inhibition of ACh EC80 current responses, Xenopus oocytes, HS isoform; type: cell-based
T3 construct: expressed in transfected cells; host or cells: Xenopus laevis oocytes, nuclear injection of cDNA in plasmid pCI (10 α4 : 1 β2 for LS, 1 α4 : 10 β2 for HS)

[5] = biological target: T1, 5-HT3A receptor; test: FlexStation fluorescent membrane-potential dye assay, transfected HEK 293 cells; type: cell-based; conditions: for functional response at 5-HT3A receptors: concentrations up to 30 µM; for EC50: n=4
[6] = physchem
[7] = biological target: T4, (α4)2(β2)3 (HS isoform) α4β2 nAChR WT (Homo sapiens, UniProt P17787+P43681); test: Two-electrode voltage clamp, Xenopus oocytes expressing HS α4β2 nAChR, wild type; type: cell-based; conditions: for EC50: varenicline variants series
T4 construct: expressed in transfected cells; host or cells: Xenopus laevis oocytes, nuclear injection of cDNA in plasmid pCI (10 α4 : 1 β2 for LS, 1 α4 : 10 β2 for HS)

[8] = biological target: T5, human α4β2 nAChR (Homo sapiens, UniProt P17787+P43681); test: [3H]epibatidine radioligand binding (saturation and competition), membranes of transfected HEK 293 cells
T5 construct: expressed in transfected cells; host or cells: HEK 293 cells, transient transfection with JetPEI, membranes

[9] = biological target: T6, (α4)3(β2)2 (LS isoform) α4β2 nAChR (Homo sapiens, UniProt P17787+P43681); test: Inhibition of ACh EC80 current responses, Xenopus oocytes, LS isoform; type: cell-based
T6 construct: expressed in transfected cells; host or cells: Xenopus laevis oocytes, nuclear injection of cDNA in plasmid pCI (10 α4 : 1 β2 for LS, 1 α4 : 10 β2 for HS)

[10] = biological target: T7, (α4)3(β2)2 (LS isoform) α4β2 nAChR WT (Homo sapiens, UniProt P17787+P43681); test: Two-electrode voltage clamp, Xenopus oocytes expressing LS α4β2 nAChR, wild type; type: cell-based
T7 construct: expressed in transfected cells; host or cells: Xenopus laevis oocytes, nuclear injection of cDNA in plasmid pCI (10 α4 : 1 β2 for LS, 1 α4 : 10 β2 for HS)

[11] = biological target: T8, human α3β4 nAChR (Homo sapiens, UniProt P30926+P32297); test: [3H]epibatidine radioligand binding (saturation and competition), membranes of transfected HEK 293 cells
T8 construct: expressed in transfected cells; host or cells: HEK 293 cells, transient transfection with JetPEI, membranes

[12] = cited from earlier work
[13] = biological target: T9, (α4)3(β2)2 (LS isoform) α4β2 nAChR α4T139V (Homo sapiens, UniProt P17787+P43681, T139V); test: Two-electrode voltage clamp, Xenopus oocytes, LS α4β2 nAChR α4T139V; type: cell-based
T9 construct: expressed in transfected cells; host or cells: Xenopus laevis oocytes, nuclear injection of cDNA in plasmid pCI

[14] = test system: human 5-HT3 serotonin receptor; conditions: cited from earlier work
[15] = biological target: T10, (α4)3(β2)2 (LS isoform) α4β2 nAChR β2S133V (Homo sapiens, UniProt P17787+P43681, S133V); test: Two-electrode voltage clamp, Xenopus oocytes, LS α4β2 nAChR β2S133V; type: cell-based
T10 construct: expressed in transfected cells; host or cells: Xenopus laevis oocytes, nuclear injection of cDNA in plasmid pCI

[16] = biological target: T11, (α4)2(β2)3 (HS isoform) α4β2 nAChR α4T139V (Homo sapiens, UniProt P17787+P43681, T139V); test: Two-electrode voltage clamp, Xenopus oocytes, HS α4β2 nAChR α4T139V; type: cell-based
T11 construct: expressed in transfected cells; host or cells: Xenopus laevis oocytes, nuclear injection of cDNA in plasmid pCI

[17] = biological target: T12, (α4)3(β2)2 (LS isoform) α4β2 nAChR β2S133Vα4T139V (Homo sapiens, UniProt P17787+P43681, S133V/T139V); test: Two-electrode voltage clamp, Xenopus oocytes, LS α4β2 nAChR β2S133Vα4T139V; type: cell-based
T12 construct: expressed in transfected cells; host or cells: Xenopus laevis oocytes, nuclear injection of cDNA in plasmid pCI

[18] = biological target: T13, (α4)2(β2)3 (HS isoform) α4β2 nAChR β2S133Vα4T139V (Homo sapiens, UniProt P17787+P43681, S133V/T139V); test: Two-electrode voltage clamp, Xenopus oocytes, HS α4β2 nAChR β2S133Vα4T139V; type: cell-based
T13 construct: expressed in transfected cells; host or cells: Xenopus laevis oocytes, nuclear injection of cDNA in plasmid pCI

[19] = biological target: T14, (α4)2(β2)3 (HS isoform) α4β2 nAChR α4T183V (Homo sapiens, UniProt P17787+P43681, T183V); test: Two-electrode voltage clamp, Xenopus oocytes, HS α4β2 nAChR α4T183V; type: cell-based
T14 construct: expressed in transfected cells; host or cells: Xenopus laevis oocytes, nuclear injection of cDNA in plasmid pCI

[20] = biological target: T15, (α4)3(β2)2 (LS isoform) α4β2 nAChR β2S133Vα4T183V (Homo sapiens, UniProt P17787+P43681, S133V/T183V); test: Two-electrode voltage clamp, Xenopus oocytes, LS α4β2 nAChR β2S133Vα4T183V; type: cell-based
T15 construct: expressed in transfected cells; host or cells: Xenopus laevis oocytes, nuclear injection of cDNA in plasmid pCI

[21] = biological target: T16, (α4)3(β2)2 (LS isoform) α4β2 nAChR α4T183V (Homo sapiens, UniProt P17787+P43681, T183V); test: Two-electrode voltage clamp, Xenopus oocytes, LS α4β2 nAChR α4T183V; type: cell-based
T16 construct: expressed in transfected cells; host or cells: Xenopus laevis oocytes, nuclear injection of cDNA in plasmid pCI

[22] = biological target: T17, (α4)2(β2)3 (HS isoform) α4β2 nAChR β2S133V (Homo sapiens, UniProt P17787+P43681, S133V); test: Two-electrode voltage clamp, Xenopus oocytes, HS α4β2 nAChR β2S133V; type: cell-based
T17 construct: expressed in transfected cells; host or cells: Xenopus laevis oocytes, nuclear injection of cDNA in plasmid pCI

[23] = biological target: T18, (α4)2(β2)3 (HS isoform) α4β2 nAChR β2S133Vα4T183V (Homo sapiens, UniProt P17787+P43681, S133V/T183V); test: Two-electrode voltage clamp, Xenopus oocytes, HS α4β2 nAChR β2S133Vα4T183V; type: cell-based
T18 construct: expressed in transfected cells; host or cells: Xenopus laevis oocytes, nuclear injection of cDNA in plasmid pCI

[24] = biological target: α4β2; conditions: read-out: affinity at α4β2; cited from earlier work
[25] = [3H]GR65630 0.3 nM, read-out: IC50, inhibition of [3H]GR65630 binding
[26] = mean + SEM, read-out: pIC50, inhibition of [3H]GR65630 binding (converted)
[27] = co-applied with ACh EC80 300 µM

c1ccc2nc3c(nc2c1)C1CNCC3C1 [Isovarenicline 5]
protonated fraction of ammonium center [1]: ≥ 90% | fold increase of IC50 against [3H]GR65630 compared to varenicline 1 [2]: 165 fold | IC50 [2, 25]: 49.6 µM | Ki [3]: 127 µM | IC50 [4]: 70 ± 12 µM | functional response at 5-HT3A receptors [5]: No signiﬁcant responses | pKa [6]: 8.44 ± 0.09 | RE [7]: 0.0071 ± 0.00086 ^a | fold reduction of efficacy vs varenicline 1 [7]: 20 fold | EC50 ([7]; Table 3, HS (α4)2(β2)3): 13.3 ± 2.5 µM | Ki ([8]; read-out: Ki α4β2): 5.46 µM | IC50 [9]: 142 ± 21 µM | RE [10]: 0.054 ± 0.013 ^a | fold reduction of efficacy vs varenicline 1 [10]: 7 fold | EC50 ([10]; read-out: EC50): 26 ± 8.5 µM | Ki [11]: 67.7 µM | Ki ratio α3β4/α4β2 [11]: 12

c1cnc2cc3c(cc2n1)[C@@H]1CNC[C@H]3C1 [Varenicline 1, varenicline, reference compound]
pKa, literature value ([12]; ref Pfizer[80]): 9.2 | pKa, literature value ([12]; ref Rollema et al.[81]): 9.3 | pKa, literature value ([12]; ref Unal et al.[82]): 9.22 ± 0.13 | pKa [1]: 8.9 ± 0.1 | IC50 [2, 26]: 0.304 µM | EC50 ([5]; EC50, activation of 5-HT3A receptors, membrane-potential sensitive dye): 0.4 µM | EC50 ([5]; pEC50, activation of 5-HT3A receptors, mean + SEM): 0.437 µM | RE ([7]; Table 3, HS (α4)2(β2)3, relative to maximal ACh response): 0.14 ± 0.012 | RE ([10]; Table 3, LS (α4)3(β2)2, relative to maximal ACh response): 0.38 ± 0.025 | reduction of RE vs WT [13]: 50%

c1ccc2cc3c(cc2c1)C1CNCC3C1 [C2 varenicline 4]
protonated fraction of ammonium center [1]: ≥ 90% | fold increase of IC50 against [3H]GR65630 compared to varenicline 1 [2]: 44 fold | IC50 [2, 26]: 13.6 µM | Ki [3]: 1.32 µM | IC50 [4]: 11 ± 1.2 µM | functional response at 5-HT3A receptors [5]: No signiﬁcant responses | pKa [6]: 9.63 ± 0.08 | RE [7]: 0.022 ± 0.0033 ^a | fold increase in EC50 vs varenicline 1 [7]: 10 fold | fold reduction of efficacy vs varenicline 1 [7]: 6 fold | EC50 ([7]; Table 3, HS (α4)2(β2)3): 2.64 ± 0.8 µM | Ki [8]: 0.0143 ± 0.0016 µM | fold decrease in affinity compared to varenicline 1 [8]: approximately 30 fold | IC50 [9, 27]: 33 ± 14 µM | RE [10]: 0.102 ± 0.012 ^a | fold increase in EC50 vs varenicline 1 [10]: 10 fold | fold reduction of efficacy vs varenicline 1 [10]: 4 fold | EC50 ([10]; Table 3, LS (α4)3(β2)2, varenicline variants series, read-out: EC50): 11.5 ± 1.74 µM | Ki ratio α3β4/α4β2 [11]: 18.7 | Ki ([11]; competition with [3H]epibatidine 0.25 nM, Cheng-Prusoff): 0.267 ± 0.073 µM

O=c1cccc2n1C[C@@H]1CNC[C@H]2C1 [Cytisine 3, cytisine]
fold less potent than varenicline 1 [14]: 2,000 fold | EC50 [15]: 5.1 ± 1 µM | RE (relative efficacy, I/ImaxACh) [15]: 0.21 ± 0.01 | RE (relative efficacy, I/ImaxACh) [16]: 0.023 ± 0.001 | EC50 [17]: 5.8 ± 1.4 µM | RE (relative efficacy, I/ImaxACh) [17]: 0.18 ± 0.01 | RE (relative efficacy, I/ImaxACh) [18]: 0.022 ± 0.009 | pKa ([6]; pKa value): 8.07 | RE (relative efficacy, I/ImaxACh) [19]: 0.021 ± 0.003 | RE (relative efficacy, I/ImaxACh) [7]: 0.025 and 0.025 ± 0.004 | EC50 [20]: 6.9 ± 1.5 µM | RE (relative efficacy, I/ImaxACh) [20]: 0.19 ± 0.01 | EC50 [21]: 4.6 ± 1 µM | RE (relative efficacy, I/ImaxACh) [21]: 0.22 ± 0.02 | RE (relative efficacy, I/ImaxACh) [22]: 0.016 ± 0.002 | EC50 [10]: 2.9 ± 0.8 µM | RE (relative efficacy, I/ImaxACh) [10]: 0.23 and 0.23 ± 0.08 | EC50 [13]: 2.5 ± 0.7 µM | RE (relative efficacy, I/ImaxACh) [13]: 0.19 ± 0.02 | RE (relative efficacy, I/ImaxACh) [23]: 0.018 ± 0.003

c1cnc2nc3c(nc2n1)C1CNCC3C1 [N2 varenicline 6]
fold increase of IC50 against [3H]GR65630 compared to varenicline 1 [2]: 250 fold | IC50 [2, 25]: 75.8 µM | IC50 ([4]; co-applied with ACh EC80 30 µM): > 1000 µM | functional response at 5-HT3A receptors [5]: No signiﬁcant responses | pKa [6]: 7.31 ± 0.05 | RE [7]: 0.0010 ± 0.0001 ^a | IC50 [9, 27]: > 1000 µM | RE [10]: 0.0032 ± 0.0023 ^a

c1ccc2c(c1)C1CNCC2C1 [benzo variant, 2,3,4,5-tetrahydro-1H-1,5-methanobenzo[d]azepine]
Ki [24]: 0.02 µM
